Experimental data: patent US11498899B2, “Nitrone herbicides” (FMC Corporation, priority 2016, dated 2022)

Assays:
[1] = system: barnyardgrass (Echinochloa crus-galli); assay: Test A preemergence, visual injury rating 0-100 (0 no effect, 100 complete control); type: in vivo
[2] = system: foxtail, giant (giant foxtail, Setaria faberii); assay: Test A preemergence, visual injury rating 0-100; type: in vivo
kochia (Kochia scoparia) [3] = assay: Test A preemergence, visual injury rating 0-100; type: in vivo
[4] = system: pigweed (Amaranthus retroflexus); assay: Test A preemergence, visual injury rating 0-100; type: in vivo
[5] = system: ragweed (common ragweed, Ambrosia elatior); assay: Test A preemergence, visual injury rating 0-100; type: in vivo
[6] = system: ryegrass, Italian (Italian ryegrass, Lolium multiflorum); assay: Test A preemergence, visual injury rating 0-100; type: in vivo
[7] = system: barnyardgrass (Echinochloa crus-galli); assay: Test A postemergence, visual injury rating 0-100; type: in vivo; settings: 0 to 100 scale
[8] = system: blackgrass (Alopecurus myosuroides); assay: Test A postemergence, visual injury rating 0-100; type: in vivo; settings: 0 to 100 scale
corn (Zea mays) = assay: Test A postemergence, visual injury rating 0-100; type: in vivo; settings: 0 to 100 scale
[9] = system: foxtail, giant (giant foxtail, Setaria faberii); assay: Test A postemergence, visual injury rating 0-100; type: in vivo; settings: 0 to 100 scale
[10] = system: galium (catchweed bedstraw, Galium aparine); assay: Test A postemergence, visual injury rating 0-100; type: in vivo; settings: 0 to 100 scale
kochia (Kochia scoparia) [11] = assay: Test A postemergence, visual injury rating 0-100; type: in vivo; settings: 0 to 100 scale
[12] = system: pigweed (Amaranthus retroflexus); assay: Test A postemergence, visual injury rating 0-100; type: in vivo; settings: 0 to 100 scale
[13] = system: ragweed (common ragweed, Ambrosia elatior); assay: Test A postemergence, visual injury rating 0-100; type: in vivo; settings: 0 to 100 scale
[14] = system: ryegrass, Italian (Italian ryegrass, Lolium multiflorum); assay: Test A postemergence, visual injury rating 0-100; type: in vivo; settings: 0 to 100 scale
[15] = system: wheat (Triticum aestivum); assay: Test A postemergence, visual injury rating 0-100; type: in vivo; settings: 0 to 100 scale
[16] = system: ducksalad (Heteranthera limosa); assay: Test B flooded paddy test, visual rating 0-100; settings: Flood, 250 g ai/ha, applied to paddy water, rated after 13 to 15 days
[17] = system: barnyardgrass (Echinochloa crus-galli); assay: Test B flooded paddy test, visual rating 0-100; settings: Flood, 250 g ai/ha, applied to paddy water, rated after 13 to 15 days
rice (Oryza sativa) = assay: Test B flooded paddy test, visual rating 0-100 (0 no effect, 100 complete control); settings: Flood, 250 g ai/ha, applied to paddy water, rated after 13 to 15 days

Row | Structure (SMILES) | Barnyardgrass plant response rating (0 to 100 scale) ([1]; 125 g ai/ha) | Barnyardgrass plant response rating (0 to 100 scale) ([1]; 500 g ai/ha) | Foxtail, Giant plant response rating (0 to 100 scale) ([2]; 125 g ai/ha) | Foxtail, Giant plant response rating (0 to 100 scale) ([2]; 500 g ai/ha) | Kochia plant response rating (0 to 100 scale) (kochia (Kochia scoparia) [3]; 125 g ai/ha) | Kochia plant response rating (0 to 100 scale) (kochia (Kochia scoparia) [3]; 500 g ai/ha) | Pigweed plant response rating (0 to 100 scale) ([4]; 125 g ai/ha) | Pigweed plant response rating (0 to 100 scale) ([4]; 500 g ai/ha) | Ragweed plant response rating (0 to 100 scale) ([5]; 125 g ai/ha) | Ragweed plant response rating (0 to 100 scale) ([5]; 500 g ai/ha) | Ryegrass, Italian plant response rating (0 to 100 scale) ([6]; 125 g ai/ha) | Ryegrass, Italian plant response rating (0 to 100 scale) ([6]; 500 g ai/ha) | Barnyardgrass plant response rating ([7]; 125 g ai/ha) | Barnyardgrass plant response rating ([7]; 500 g ai/ha) | Blackgrass plant response rating ([8]; 125 g ai/ha) | Blackgrass plant response rating ([8]; 500 g ai/ha) | Corn plant response rating (corn (Zea mays); 125 g ai/ha) | Corn plant response rating (corn (Zea mays); 500 g ai/ha) | Foxtail, Giant plant response rating ([9]; 125 g ai/ha) | Foxtail, Giant plant response rating ([9]; 500 g ai/ha) | other results
1 | CC1=[N+]([O-])C(C(=O)Nc2cccc(F)c2F)C(c2ccc(C)c(Cl)c2)C1 (racemic) [Compound 72] | 80 | 90 | 90 | 90 | 20 | 80 | 30 | 30 | 20 | 90 | 30 | 90 | 90 | 90 | 60 | 70 | 40 | 70 | 50 | 80 | Galium plant response rating ([10]; 125 g ai/ha): 50; Galium plant response rating ([10]; 500 g ai/ha): 50; Kochia plant response rating (kochia (Kochia scoparia) [11]; 125 g ai/ha): 0; Kochia plant response rating (kochia (Kochia scoparia) [11]; 500 g ai/ha): 40; Pigweed plant response rating ([12]; 125 g ai/ha): 10; Pigweed plant response rating ([12]; 500 g ai/ha): 30; Ragweed plant response rating ([13]; 125 g ai/ha): 0; Ragweed plant response rating ([13]; 500 g ai/ha): 50; Ryegrass, Italian plant response rating ([14]; 125 g ai/ha): 30; Ryegrass, Italian plant response rating ([14]; 500 g ai/ha): 70; Wheat plant response rating ([15]; 125 g ai/ha): 30; Wheat plant response rating ([15]; 500 g ai/ha): 80; Ducksalad plant response rating (0 to 100 scale) [16]: 15; Barnyardgrass plant response rating (0 to 100 scale) [17]: 40; Rice plant response rating (0 to 100 scale) (rice (Oryza sativa)): 0
2 | CC1=[N+]([O-])C(C(=O)Nc2cccc(F)c2F)C(c2ccc(C(F)(F)F)c(Br)c2)C1 (racemic) [Compound 73] | 90 | 90 | 80 | 90 | 20 | 60 | 40 | 70 | 50 | 80 | 50 | 90 | 30 | 70 | 40 | 80 | 50 | 70 | 40 | 70 | Galium plant response rating ([10]; 125 g ai/ha): 10; Galium plant response rating ([10]; 500 g ai/ha): 50; Kochia plant response rating (kochia (Kochia scoparia) [11]; 125 g ai/ha): 10; Kochia plant response rating (kochia (Kochia scoparia) [11]; 500 g ai/ha): 20; Pigweed plant response rating ([12]; 125 g ai/ha): 30; Pigweed plant response rating ([12]; 500 g ai/ha): 70; Ragweed plant response rating ([13]; 125 g ai/ha): 0; Ragweed plant response rating ([13]; 500 g ai/ha): 20; Ryegrass, Italian plant response rating ([14]; 125 g ai/ha): 0; Ryegrass, Italian plant response rating ([14]; 500 g ai/ha): 60; Wheat plant response rating ([15]; 125 g ai/ha): 0; Wheat plant response rating ([15]; 500 g ai/ha): 60; Ducksalad plant response rating (0 to 100 scale) [16]: 0; Barnyardgrass plant response rating (0 to 100 scale) [17]: 0; Rice plant response rating (0 to 100 scale) (rice (Oryza sativa)): 0
3 | COc1ccc(C2CC(C)=[N+]([O-])C2C(=O)Nc2cccc(F)c2F)cc1C(F)(F)F (racemic) [Compound 74] | 90 | 90 | 90 | 90 | 30 | 90 | 0 | 60 | 40 | 40 | 90 | 90 | 80 | 90 | 70 | 70 | 40 | 80 | 60 | 80 | Galium plant response rating ([10]; 125 g ai/ha): 20; Galium plant response rating ([10]; 500 g ai/ha): 50; Kochia plant response rating (kochia (Kochia scoparia) [11]; 125 g ai/ha): 0; Kochia plant response rating (kochia (Kochia scoparia) [11]; 500 g ai/ha): 10; Pigweed plant response rating ([12]; 125 g ai/ha): 20; Pigweed plant response rating ([12]; 500 g ai/ha): 40; Ragweed plant response rating ([13]; 125 g ai/ha): 0; Ragweed plant response rating ([13]; 500 g ai/ha): 20; Ryegrass, Italian plant response rating ([14]; 125 g ai/ha): 0; Ryegrass, Italian plant response rating ([14]; 500 g ai/ha): 50; Wheat plant response rating ([15]; 125 g ai/ha): 60; Wheat plant response rating ([15]; 500 g ai/ha): 60; Ducksalad plant response rating (0 to 100 scale) [16]: 20; Barnyardgrass plant response rating (0 to 100 scale) [17]: 45; Rice plant response rating (0 to 100 scale) (rice (Oryza sativa)): 0
4 | CC1=[N+]([O-])C(C(=O)Nc2cccc(F)c2F)C(c2cccc(C)c2C)C1 (racemic) [Compound 77] | 90 | 90 | 90 | 90 | 10 | 70 | 20 | 70 | 30 | 80 | 10 | 90 | 80 | 90 | 60 | 80 | 50 | 60 | 90 | 90 | Galium plant response rating ([10]; 125 g ai/ha): 50; Galium plant response rating ([10]; 500 g ai/ha): 70; Kochia plant response rating (kochia (Kochia scoparia) [11]; 125 g ai/ha): 0; Kochia plant response rating (kochia (Kochia scoparia) [11]; 500 g ai/ha): 20; Pigweed plant response rating ([12]; 125 g ai/ha): 0; Pigweed plant response rating ([12]; 500 g ai/ha): 20; Ragweed plant response rating ([13]; 125 g ai/ha): 20; Ragweed plant response rating ([13]; 500 g ai/ha): 60; Ryegrass, Italian plant response rating ([14]; 125 g ai/ha): 40; Ryegrass, Italian plant response rating ([14]; 500 g ai/ha): 70; Wheat plant response rating ([15]; 125 g ai/ha): 50; Wheat plant response rating ([15]; 500 g ai/ha): 70; Ducksalad plant response rating (0 to 100 scale) [16]: 100; Barnyardgrass plant response rating (0 to 100 scale) [17]: 75; Rice plant response rating (0 to 100 scale) (rice (Oryza sativa)): 0
5 | CC1=[N+]([O-])C(C(=O)Nc2cccc(F)c2F)C(c2cccc(F)c2C)C1 (racemic) [Compound 78] | 90 | 90 | 90 | 90 | 10 | 60 | 0 | 80 | 20 | 70 | 30 | 70 | 70 | 80 | 50 | 70 | 0 | 50 | 80 | 90 | Galium plant response rating ([10]; 125 g ai/ha): 60; Galium plant response rating ([10]; 500 g ai/ha): 60; Kochia plant response rating (kochia (Kochia scoparia) [11]; 125 g ai/ha): 20; Kochia plant response rating (kochia (Kochia scoparia) [11]; 500 g ai/ha): 50; Pigweed plant response rating ([12]; 125 g ai/ha): 0; Pigweed plant response rating ([12]; 500 g ai/ha): 20; Ragweed plant response rating ([13]; 125 g ai/ha): 0; Ragweed plant response rating ([13]; 500 g ai/ha): 60; Ryegrass, Italian plant response rating ([14]; 125 g ai/ha): 10; Ryegrass, Italian plant response rating ([14]; 500 g ai/ha): 50; Wheat plant response rating ([15]; 125 g ai/ha): 40; Wheat plant response rating ([15]; 500 g ai/ha): 60; Ducksalad plant response rating (0 to 100 scale) [16]: 100; Barnyardgrass plant response rating (0 to 100 scale) [17]: 75; Rice plant response rating (0 to 100 scale) (rice (Oryza sativa)): 0
